Patent publication US20020044943A1, “MUC-1 as an immunosuppressive therapeutic agent for the treatment of inflammatory and autoimmune conditions” (priority 1997, published 2002)

Key:
[1] = test system: GZ-Hi tumor cells; assay: Tumor take after i.v. MUC-1 mucin and subcutaneous tumor challenge; assay type: in vivo; conditions: CB6 mice, MUC-1 mucin 20 micrograms i.v. on days -2, +2, +6; 1x10^6 GZ-Hi cells s.c.; observed 8 weeks
Method: The procedures employed in this example are similar to those described in Fung, et al. Cancer Research 51:1170-1176 (1991), which is hereby incorporated by reference. However, in the present example, the human MUC-1 system was used instead of the epiglycanin system.
CB6 mice were injected intravenously with MAb B27.29 affinity purified MUC-1 mucin (20 micrograms each treatment or approximately 400 units) prior to (day-2) and after (days +2 and +6) an attempted tumor challenge. Affinity purified mucin had been prepared by affinity adsorption on a B 27.29 CnBr-Sepharose matrix from a pleural effusion fluid obtained from a patient with adenocarcinoma of the ovaries. MUC-1 mucin treated and control mice were challenged with 1×10^6 GZ-Hi tumor cells injected into the subcutaneous space along the flank. Mice were observed by palpation and visual inspection at the injection site for the occurrence of tumors over a period of 8 weeks.

[2] = test system: human T-cell cultures; assay: Mixed lymphocyte reaction (allo-antigenic T-cell proliferation); assay type: cell-based; conditions: B27.29 affinity purified MUC-1 mucin, various doses, in vitro
Method: The mixed lymphocyte reaction is conducted by mixing the lymphocytes of HLA disparate individuals in in vitro tissue cultures. The “responder population” in this experiment is purified T-cells from one population, while the “stimulator” population in this experiment is the adherent antigen presenting cells obtained from an HLA mismatched individual donor. The two cell populations were mixed and cultured either in the presence or absence of various doses of B27.29 affinity purified MUC-1 mucin that was purified from a pleural effusion fluid.

[3] = target: T1, recombinant human ICAM-1-Ig fusion protein (Homo sapiens, UniProt P05362); assay: Tumor cell-immobilized ICAM-1 adhesion assay; assay type: cell-based; conditions: antibodies 10 or 20 ug/mL, soluble MUC-1 10 ug/mL
T1 construct: coated with 50 uL of a solution with 20 ug/mL recombinant soluble ICAM-1 in PBS; Ig (immunoglobulin) fusion partner
Method: 96 well tissue culture plates were coated with 50 uL of a solution with 20 ug/mL recombinant soluble ICAM-1 in PBS for 1 hr at room temperature. Wells were then blocked with 1% BSA for 2 hr at 37 C. and washed four times with PBS. Antibodies (10 ug/mL) (anti-ICAM-1 164B, 18E3D, 84H10, anti-E selectin 1.2B6) and soluble MUC-1 (10 ug/mL) were added to the wells for 90 min. at room temperature. Wells were then washed again before addition of cells. BCECF labeled tumor cells were pretreated +/− 20 ug/mL of anti-MUC-1 (B27.29, or DF3P) and were then added to the appropriate wells for 40 min. at 37 C. Wells were then washed and percent adhesion was then determined as described in the tumor cell—endothelial cell adhesion assay.
To exclude the possibility that adhesion was being mediated by endothelial molecules other than ICAM-1, the adhesion of the MUC-1 transfectants was studied using immobilized recombinant human ICAM-1-Ig fusion protein. Adhesion was compared to Bovine Serum Albumin and Collagen type I as controls.

[4] = test system: Purified T cells; assay: T cell proliferation assay (allo MLR, 3H-thymidine incorporation); assay type: cell-based, human; conditions: 10 ug/ml, allo PBL stimulated T cells
Method: Enriched T cell populations were purified from buffy coats obtained from normal red cross donors using nylon wool columns by previously reported procedures. […] For the allo MLR, mitomycin C treated allogeneic PBLs were cocultured with purified T cells in the presence or absence of affinity purified MUC-1 mucin or control OSM. In most of the experiments, the T cells were cultured 6-7 days in AIM V medium in the absence or presence of MUC-1, MUC-1 derivative or OSM at the indicated concentration. After this time, the T cells were harvested, washed and cultured as indicated.
Purified T cells (10^6/ml) were cultured in AIM V medium with allo PBLs in the absence or presence of MUC-1, MUC-1 derivative or OSM 10 ug/ml for 6-7 days. T cells were harvested and plated in 96 well flat bottom plates at 10^5/well with allo PBLs (10^5/well), in the presence or absence of affinity purified MUC-1, MUC-1 derivative or OSM. Control cultures were treated with either 50 U/ml IL-2 or 1 ug/ml anti-CD28 Mab. After 4 days of culture, ^3H-thymidine (1 uCi/well) was added. The cells were harvested on the fifth day and ^3H-thymidine incorporation was measured by liquid scintillation.
Synthetic peptides, as described in Example 8, corresponding to 3, 4, 5 or 6 MUC-1 repeats, were added at 10 ug/ml to allo cultures and T cell proliferation was measured at 14 days from the start of culture. […]

T1 sequence (P05362 28-480 limits assumed): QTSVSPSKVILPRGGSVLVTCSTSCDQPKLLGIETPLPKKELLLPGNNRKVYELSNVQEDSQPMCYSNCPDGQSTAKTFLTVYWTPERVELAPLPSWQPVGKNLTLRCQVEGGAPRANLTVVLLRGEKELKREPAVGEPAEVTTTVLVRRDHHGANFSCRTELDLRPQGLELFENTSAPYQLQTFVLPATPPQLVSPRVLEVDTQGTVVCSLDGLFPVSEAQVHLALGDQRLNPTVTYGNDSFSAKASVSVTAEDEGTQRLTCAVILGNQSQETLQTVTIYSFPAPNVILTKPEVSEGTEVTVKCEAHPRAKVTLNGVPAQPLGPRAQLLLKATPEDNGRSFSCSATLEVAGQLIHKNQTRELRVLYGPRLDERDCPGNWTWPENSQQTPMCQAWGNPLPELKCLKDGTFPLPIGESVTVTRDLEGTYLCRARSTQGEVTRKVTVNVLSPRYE

Substance: MUC-1: MAb B27.29 affinity purified human MUC-1 mucin from pleural effusion or ascites fluid of cancer patients
- % Tumor Take [1]: 100%
- inhibition of T-cell proliferation against a strong allo-antigenic stimulus [2]: strongly inhibits
- inhibition of GZHi adhesion to immobilized ICAM-1 [3]: equally effective at blocking adhesion
- reduction of T cell proliferation relative to control [4]: inhibition of T cell proliferation
